Measured values: patent US7884117B2, “Carbonylamino pyrrolopyrazoles, potent kinase inhibitors” (Pfizer Inc., priority 2005, dated 2011)

Columns and labels:
[1] = molecular target: T1, PAK4 kinase activity in whole cells (TR-293-KDG, modified HEK 293) (Homo sapiens, UniProt O96013); assay: PAK4 cellular assay: sandwich ELISA of PAK4-dependent phosphorylation of GEF-H1b in TR-293-KDG cells; type: cell-based; settings: 3-hour exposure
T1 construct: engineered to overexpress both GEF-H1b and the kinase domain (KD) of PAK4; expressed in transfected cells; host or cells: TR-293-KDG (modified HEK 293, Trex system, Invitrogen)
T1 sequence (O96013 321-572 limits assumed): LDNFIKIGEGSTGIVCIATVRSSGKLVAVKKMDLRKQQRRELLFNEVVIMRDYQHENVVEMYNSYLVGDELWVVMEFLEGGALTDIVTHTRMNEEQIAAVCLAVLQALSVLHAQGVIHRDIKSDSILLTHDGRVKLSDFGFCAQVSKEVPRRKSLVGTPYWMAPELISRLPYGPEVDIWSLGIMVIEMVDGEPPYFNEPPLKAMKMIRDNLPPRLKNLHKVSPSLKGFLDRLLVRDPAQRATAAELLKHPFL

[2] = molecular target: T2, PAK4 Kinase domain (PAK4 KD) (Homo sapiens, UniProt O96013); assay: PAK4 kinase domain enzymatic assay (PK/LDH-coupled, Ki); type: biochemical; settings: PAK4 Kinase Domain
T2 construct: Cloning, expression, and purification of recombinant PAK4 Kinase domain (PAK4 KD); His tag (pET28a(+)/pET24a(+), Ni-NTA purification) (N, cleaved yes); GST (pGST4.5, glutathione column) (N, cleaved yes); made in house; host or cells: E. coli BL21(DE3)
T2 sequence (O96013 321-572 limits assumed): as above

Row | Compound | EC50 [1] | Ki [2]
1 | CN(C)CC(OC(=O)N1Cc2c(NC(=O)c3ccc(F)cc3F)n[nH]c2C1(C)C)c1ccccc1 (stereo not shown) [Example 23, 2-(dimethylamino)-1-phenylethyl 3-[(2,4-difluorobenzoyl)amino]-6,6-dimethyl-4,6-dihydropyrrolo[3,4-c]pyrazole-5(1H)-carboxylate] | 3.9 nM | 122 nM
2 | CN(C)C[C@@H](OC(=O)N1Cc2c(NC(=O)c3ccccc3)n[nH]c2C1(C)C)c1ccccn1 [Example 24, (1R)-2-(dimethylamino)-1-pyridin-2-ylethyl 3-(benzoylamino)-6,6-dimethyl-4,6-dihydropyrrolo[3,4-c]pyrazole-5(1H)-carboxylate] | 140 nM | 63.7 nM
3 | CN(C)C[C@@H](OC(=O)N1Cc2c(NC(=O)c3ccc(F)cc3)n[nH]c2C1(C)C)c1ccccn1 [Example 25, (1R)-2-(dimethylamino)-1-pyridin-2-ylethyl 3-[(4-fluorobenzoyl)amino]-6,6-dimethyl-4,6-dihydropyrrolo[3,4-c]pyrazole-5(1H)-carboxylate] | 153 nM | 78.6 nM
4 | CN(C)C[C@H](Cc1ccccc1)OC(=O)N1Cc2c(NC(=O)c3ccccc3F)n[nH]c2C1(C)C [Example 31, (1S)-1-benzyl-2-(dimethylamino)ethyl 3-[(2-fluorobenzoyl)amino]-6,6-dimethyl-4,6-dihydropyrrolo[3,4-c]pyrazole-5(1H)-carboxylate] | 230 nM | 858 nM
5 | CN(C)C[C@@H](OC(=O)N1Cc2c(NC(=O)c3ccccc3)n[nH]c2C1(C)C)C1CCCCC1 [Example 32, (1S)-1-cyclohexyl-2-(dimethylamino)ethyl 3-(benzoylamino)-6,6-dimethyl-4,6-dihydropyrrolo[3,4-c]pyrazole-5(1H)-carboxylate] | 162 nM | 57.1 nM

More lines, in order of falling EC50 [1], values ahead:

Row | EC50 [1] | Ki [2] | Compound
6 | 2090 nM | 106 nM | CN(C)C[C@H](Cc1ccccc1)OC(=O)N1Cc2c(NC(=O)c3ccccc3)n[nH]c2C1(C)C [Example 30, (1S)-1-benzyl-2-(dimethylamino)ethyl 3-(benzoylamino)-6,6-dimethyl-4,6-dihydropyrrolo[3,4-c]pyrazole-5(1H)-carboxylate]
7 | 419 nM | 27.1 nM | CN(C)C[C@@H](OC(=O)N1Cc2c(NC(=O)[C@@H]3C[C@H]3c3ccccc3)n[nH]c2C1(C)C)c1ccccn1 [Example 29, (1R)-2-(dimethylamino)-1-pyridin-2-ylethyl 6,6-dimethyl-3-({[trans-2-phenylcyclopropyl]carbonyl}-amino)-4,6-dihydropyrrolo[3,4-c]pyrazole-5(1H)-carboxylate]
8 | 280 nM | 73.2 nM | CN(C)C[C@@H](OC(=O)N1Cc2c(NC(=O)Cc3ccc(F)cc3)n[nH]c2C1(C)C)c1ccccn1 [Example 28, (1R)-2-(dimethylamino)-1-pyridin-2-ylethyl 3-{[(4-fluorophenyl)acetyl]amino}-6,6-dimethyl-4,6-dihydropyrrolo[3,4-c]pyrazole-5(1H)-carboxylate]
9 | 244 nM | 278 nM | CN(C)C[C@@H](OC(=O)N1Cc2c(NC(=O)c3ccccc3F)n[nH]c2C1(C)C)c1ccccn1 [Example 26, (1R)-2-(dimethylamino)-1-pyridin-2-ylethyl 3-[(2-fluorobenzoyl)amino]-6,6-dimethyl-4,6-dihydropyrrolo[3,4-c]pyrazole-5(1H)-carboxylate]
10 | 79.9 nM | 82.1 nM | CN(C)C[C@@H](OC(=O)N1Cc2c(NC(=O)c3ccc(C(F)(F)F)cc3)n[nH]c2C1(C)C)c1ccccn1 [Example 27, (1R)-2-(dimethylamino)-1-pyridin-2-ylethyl 6,6-dimethyl-3-{[4-(trifluoromethyl)benzoyl]amino}-4,6-dihydropyrrolo[3,4-c]pyrazole-5(1H)-carboxylate]
11 | 60 nM | 510 nM | CN(C)C[C@@H](OC(=O)N1Cc2c(NC(=O)c3ccc(F)cc3F)n[nH]c2C1(C)C)C1CCCCC1 [Example 34, (1S)-1-cyclohexyl-2-(dimethylamino)ethyl 3-[(2,4-difluorobenzoyl)amino]-6,6-dimethyl-4,6-dihydropyrrolo[3,4-c]pyrazole-5(1H)-carboxylate]
